Source: patent US11358931B2, “Selective androgen receptor modulators (SARMs) and uses thereof” (priority 2007, dated 2022)
Where two headings read alike, the source gives them in different places.

How the values were obtained:
[1] = Pharmacokinetics in ovariectomized female rats (plasma, Day 14); format: in vivo, rat; conditions: OVX female rats; for AUC: female, po; for AUC / Cmax / Tmax: rat, plasma, PO
Procedure: After the 14th dose, approximately 250 μL venous blood was collected via percutaneous jugular puncture from the rats at 0, 0.5, 1, 2, 4 and 6 hours post-dosing. The blood samples were collected into lithium-heparin tubes (Becton Dickinson, Franklin Lakes, N.J.). Plasma fractions were collected for pharmacokinetic analysis. Approximately 24 hours after the last dose, rats were sacrificed by cardiac exsanguination, and blood was collected into serum separator tubes (Becton Dickinson), and the gastrocnemius muscle, plantaris muscle, uterus, clitoral glands, clitoris and inguinal fat pads were isolated, blotted and weighed individually. Uterine weight measurements can be inaccurate in surgically ovariectomized rats due to the potential loss of uterine tissue at the tips of the uterine horns during removal of the ovaries. To minimize this variability, the length of the uterine horns was measured and the uterine weight was reported normalized to uterine length. The left femur and lumbar vertebra L5 were wrapped in saline-soaked gauze and stored at −20° C. for biochemical analysis. The right femur and lumbar vertebrae L3-L4 were collected and stored in 70% ethanol for histomorphometry. The right tibia was collected in formalin for histological analysis. The left tibia was collected on dry ice and stored at −20° C. for measurement of alkaline phosphatase activity.
Pharmacokinetic analysis was performed as described in Example 13.

[2] = test system: orchidectomized male Sprague-Dawley rat; test: In vivo assay, orchidectomized mature male rats (14 days oral); conditions: for exposure (AUC24) at which muscle mass is stimulated above sham equivalent levels: ORX male rats, 14 days PO
Description: The orchidectomized male Sprague-Dawley rat model was used to assess the effects of Compound 102 on various reproductive, gonadotropin and musculoskeletal endpoints, including sex accessory organs, bone, serum gonadotropin levels and striated muscle in mature male rats.
In this assay, two-month old rats were acclimated in a vivarium for one week. After this acclimation period, rats were surgically orchidectomized under isoflurane anesthesia and left untreated for 14 days. After 14 days, animals were sorted into groups such that no statistically significant differences in mean body weights were observed. Rats began receiving treatment 14 days after the day of surgery. Sham-operated and orchidectomized rats, treated with vehicle, served as controls. The different test groups were treated with various doses of Compound 102 (0.03 to 100 mg/kg/day per os (by mouth)). Dosages included 0.03, 0.1, 0.3, 1, 3, 10, 30 and 100 mg/kg/day. Ostarine, a non-steroidal androgenic drug (Evans et al., J Clin Oncology 25: 9119 (2007)) was dosed at dosages similar to other test groups as a comparison. After the 14th dose, venous blood was collected at 0, 1, 2, 4 and 6 hours after dosing. The blood samples were collected in EDTA-containing tubes (Becton Dickinson, Franklin Lakes, N.J.). Approximately 24 hours after the last dose, animals were euthanized and seminal vesicle weights, ventral prostate weights, levator ani weights, preputial gland weights and blood samples were collected on necropsy.
For serum, whole blood (5 mL) was collected in vacutainer tubes (Becton Dickinson) and the blood samples were allowed to clot at room temperature for about 2 hours. Serum was separated by centrifugation at 2500 rpm for 30 minutes, collected and frozen (−80° C.). For plasma, whole blood was collected in EDTA-containing tubes by centrifugation at 1000×g for 5 minutes at 4° C. Plasma samples were stored at −20° C.
For the preparation of all dose formulations, the appropriate amount of test compound (Compound 102) for the highest concentration to be administered was weighed. The compound was suspended in the formulation vehicle (5% Tween®-80 polysorbate, 90% PEG-400 polyethylene glycol and 5% PVP-K30 polyvinylpyrrolidone). The suspension was sonicated for 15 minutes, and the resulting formulation was diluted using vehicle to obtain the proper volume and concentrations of the dosing materials to achieve a dosing volume of 1 mL/kg body weight.
Serum samples were assayed with a double anti-serum procedure using reagents from the National Institute of Diabetes and Digestive and Kidney Diseases (NIDDK). Sample compounds and standards (NIDDK-rLH-RP-3) in a total volume of 200 μL were incubated at room temperature for 2 to 3 days with 100 μL primary anti-serum (rat LH antiserum: rabbit NIDDK-anti-rLH-S-11) diluted 1:100,000. Then, 100 μL of ^125I-labeled LH (Covance Laboratories Madison, Wis.) diluted 200,000-300,000 cpm/mL was added to the tubes and incubation continued for an additional 24 hour period.
Bound hormone was separated from free hormone by precipitation with a specific goat ant-rabbit serum (GARS from Antibodies, Inc., Davis, Calif.). An aliquot of 50 μL of 4% normal rabbit serum was added to each incubation tube, after which an additional 50 μL of a 1:10 GARS solution was added. The tubes were vortexed and incubated overnight at 4° C.
The assay was terminated by centrifugation at 2,500 rpm for 30 minutes in a Sorvall RC 3C Plus centrifuge (rotor #H2000B) at 4° C. The supernatants were decanted and discarded and the pellets were counted in a 10-channel gamma-counter.
Serum osteocalcin, a vitamin K-dependent, calcium binding protein, is a biochemical marker that reflects bone formation activity (Gundberg, J Clin Ligand Assay 21: 128-138 (1998)). Serum osteocalcin was quantitated using an IRMA kit from Immutopics, Inc. (#50-1500, San Clemente, Calif.). […] The test uses two different antibodies to measure the serum osteocalcin. […]

[3] = 0.03 mg/kg, Day 14, 0.03 mg/kg, mean ± SD of n = 4, read-out: AUC6
[4] = 0.03 mg/kg, Day 14, 0.03 mg/kg, n = 4, 0 hr conc. substituted for 24 hr, read-out: AUC24
[5] = 0.3 mg/kg, Day 14, 0.3 mg/kg, mean ± SD of n = 4, read-out: AUC6
[6] = 0.3 mg/kg, Day 14, 0.3 mg/kg, n = 4, 0 hr conc. substituted for 24 hr, read-out: AUC24
[7] = 3 mg/kg, Day 14, 3 mg/kg, mean ± SD of n = 4, read-out: AUC6
[8] = 3 mg/kg, Day 14, 3 mg/kg, n = 4, 0 hr conc. substituted for 24 hr, read-out: AUC24
[9] = Day 14, 0.03 mg/kg, mean ± SD of n = 4
[10] = Day 14, 0.3 mg/kg, mean ± SD of n = 4
[11] = Day 14, 3 mg/kg, mean ± SD of n = 4

Row | Structure (SMILES) | AUC [1, 3] [ng·h/mL] | AUC [1, 4] [ng·h/mL] | AUC [1, 5] [ng·h/mL] | AUC [1, 6] [ng·h/mL] | AUC [1, 7] [ng·h/mL] | AUC [1, 8] [ng·h/mL] | Cmax [1, 9] [ng/mL] | Tmax [1, 9] [min] | Cmax [1, 10] [ng/mL] | Tmax [1, 10] [min] | Cmax [1, 11] [ng/mL] | Tmax [1, 11] [min] | preputial gland weight ([2]; 30 mg/kg/day, statistically significant) | ventral prostate or seminal vesicles, % of sham levels ([2]; 100 mg/kg/day PO (highest dose)) | exposure (AUC24) at which muscle mass is stimulated above sham equivalent levels [2] | preputial gland weight ([2]; all doses less than 10 mg/kg/day PO) | ventral prostate, % of sham equivalent levels ([2]; exposures of 1 μg·/mL or greater) | systemic exposure compared with Compound 102 ([1]; equal doses) | restoration of ventral prostate to sham equivalents ([2]; any dose)
1 | N#Cc1ccc(N2CCC[C@@H]2[C@@H](O)C(F)(F)F)cc1C(F)(F)F [Compound 102, R,R-4-(2-(1-Hydroxyl-2,2,2-trifluoroethyl)-pyrrolidinyl)-2-trifluoromethyl-benzonitrile] | 56 ± 56 | 119 ± 90 | 51 ± 41 | 229 ± 289 | 404 ± 199 | 880 ± 326 | 39 ± 28 | 210 ± 114 | 40 ± 34 | 30 ± 24 | 207 ± 87 | 30 | increased preputial gland weight above the sham level | approximately 50% | ≥ 1 µg·h/mL | remained below vehicle equivalent levels | less than 50% |  | 
2 | C[C@](O)(COc1ccc(C#N)cc1)C(=O)Nc1ccc(C#N)c(C(F)(F)F)c1 [ostarine] | 125 ± 22 | 552 ± 118 | 1080 ± 105 | 4140 ± 448 | 5040 ± 1300 | 20600 ± 3650 | 35 ± 7 | 156 ± 144 | 332 ± 40 | 36 ± 12 | 1480 ± 429 | 66 ± 36 |  |  | greater than 10 μg·/mL |  |  | significantly higher exposure | did not restore ventral prostate to sham equivalents at any dose
